Source: ChEMBL document CHEMBL1201862, “PubChem BioAssay data set” (2004)
The source made the active and inactive calls.

How the values were obtained:
Cytochrome P450 2C9 = Cytochrome P450 2C9 (Homo sapiens, UniProt P11712)
Cytochrome P450 2D6 = Cytochrome P450 2D6 (Homo sapiens, UniProt P10635);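 note: CYP2D6 member of a cytochrome P450 panel assay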
Cytochrome P450 2C19 = Cytochrome P450 2C19 (Homo sapiens, UniProt P33261); assay: Cytochrome panel assay with activity outcomes. Panel member name: p450-cyp2c19 Compounds with AC50 equal or less than 10 uM are considered active; type: functional
Chain of Cytochrome P450 2C19 (P33261 whole entry): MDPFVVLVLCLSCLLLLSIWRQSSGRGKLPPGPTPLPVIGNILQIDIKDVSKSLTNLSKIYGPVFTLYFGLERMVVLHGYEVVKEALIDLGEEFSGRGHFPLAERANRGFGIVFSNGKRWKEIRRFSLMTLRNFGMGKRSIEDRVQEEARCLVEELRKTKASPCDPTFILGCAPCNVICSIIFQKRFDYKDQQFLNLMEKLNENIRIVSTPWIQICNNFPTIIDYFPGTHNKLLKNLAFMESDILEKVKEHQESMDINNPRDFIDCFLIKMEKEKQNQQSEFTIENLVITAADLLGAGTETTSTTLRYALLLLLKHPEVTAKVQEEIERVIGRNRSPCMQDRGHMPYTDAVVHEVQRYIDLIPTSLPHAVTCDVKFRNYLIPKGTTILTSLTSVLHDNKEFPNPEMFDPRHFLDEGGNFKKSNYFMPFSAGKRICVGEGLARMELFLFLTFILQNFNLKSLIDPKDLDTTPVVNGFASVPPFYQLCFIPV

[1] = Trypanosoma cruzi growth suppression in host cells – NIH3T3 host cells, beta-gal luminescence, confirmation (AID 2044); type: functional, cell-based;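 note: intracellular parasites grown in NIH/3T3 mouse fibroblasts as host cells; luminescent beta-galactosidase reporter signal from transgenic T. cruzi replicating inside host cells; inhibitors lower the luminescence signal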
[2] = NIH3T3 cell viability loss – ATP luminescence, mouse fibroblasts, counter-screen, dose response (AID 2010); type: functional, cell-based;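 note: cells exposed to compound for about 90 hours before reading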
Cytochrome P450 3A4 = Cytochrome P450 3A4 (Homo sapiens, UniProt P08684);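 note: CYP3A4 tested as one member of a cytochrome P450 panel screen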
Chain of Cytochrome P450 3A4 (P08684 whole entry): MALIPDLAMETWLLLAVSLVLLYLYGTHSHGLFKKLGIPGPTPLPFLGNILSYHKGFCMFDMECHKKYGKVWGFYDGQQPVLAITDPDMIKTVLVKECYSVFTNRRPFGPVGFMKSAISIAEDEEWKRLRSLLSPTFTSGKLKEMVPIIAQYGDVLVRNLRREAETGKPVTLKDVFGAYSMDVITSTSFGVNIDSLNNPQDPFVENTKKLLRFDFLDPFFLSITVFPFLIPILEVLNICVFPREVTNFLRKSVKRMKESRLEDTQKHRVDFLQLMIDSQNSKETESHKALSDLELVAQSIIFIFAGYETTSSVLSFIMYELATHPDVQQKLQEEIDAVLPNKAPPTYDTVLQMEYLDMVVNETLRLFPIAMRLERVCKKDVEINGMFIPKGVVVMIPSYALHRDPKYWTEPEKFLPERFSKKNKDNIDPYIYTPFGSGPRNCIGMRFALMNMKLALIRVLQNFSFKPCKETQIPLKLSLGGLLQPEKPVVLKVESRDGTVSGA

Protein RecA = target: T1, Protein RecA (Mycobacterium tuberculosis, UniProt P9WHJ3); assay: Fluorescence Cell-Free Homogeneous Dose Retest to Identify Inhibitors of RecA-Intein Splicing Activity. [Related pubchem assays (depositor defined):AID2097, AID2223, AID489010, AID492950]; type: functional
T1 sequence (P9WHJ3 whole entry): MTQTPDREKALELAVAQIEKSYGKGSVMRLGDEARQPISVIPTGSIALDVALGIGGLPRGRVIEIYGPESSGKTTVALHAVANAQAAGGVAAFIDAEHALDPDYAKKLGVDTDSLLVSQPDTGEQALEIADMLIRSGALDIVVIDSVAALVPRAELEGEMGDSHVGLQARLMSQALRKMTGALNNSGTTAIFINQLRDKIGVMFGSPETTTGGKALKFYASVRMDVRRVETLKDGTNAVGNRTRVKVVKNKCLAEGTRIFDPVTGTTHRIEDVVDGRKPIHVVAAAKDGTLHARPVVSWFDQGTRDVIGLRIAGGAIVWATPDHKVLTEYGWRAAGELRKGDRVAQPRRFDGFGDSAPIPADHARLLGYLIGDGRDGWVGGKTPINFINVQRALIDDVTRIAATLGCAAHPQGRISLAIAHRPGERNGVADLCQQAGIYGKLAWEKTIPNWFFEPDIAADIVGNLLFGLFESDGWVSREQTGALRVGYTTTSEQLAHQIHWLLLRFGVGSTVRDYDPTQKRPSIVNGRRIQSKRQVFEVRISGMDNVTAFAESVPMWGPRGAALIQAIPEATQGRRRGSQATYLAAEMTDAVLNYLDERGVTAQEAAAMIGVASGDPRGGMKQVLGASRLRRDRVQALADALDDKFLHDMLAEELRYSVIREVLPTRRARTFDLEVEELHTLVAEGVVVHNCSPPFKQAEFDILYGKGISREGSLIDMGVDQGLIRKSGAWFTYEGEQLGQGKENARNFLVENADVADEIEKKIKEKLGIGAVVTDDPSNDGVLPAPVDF

Chain of Cytochrome P450 2C9 (P11712 whole entry): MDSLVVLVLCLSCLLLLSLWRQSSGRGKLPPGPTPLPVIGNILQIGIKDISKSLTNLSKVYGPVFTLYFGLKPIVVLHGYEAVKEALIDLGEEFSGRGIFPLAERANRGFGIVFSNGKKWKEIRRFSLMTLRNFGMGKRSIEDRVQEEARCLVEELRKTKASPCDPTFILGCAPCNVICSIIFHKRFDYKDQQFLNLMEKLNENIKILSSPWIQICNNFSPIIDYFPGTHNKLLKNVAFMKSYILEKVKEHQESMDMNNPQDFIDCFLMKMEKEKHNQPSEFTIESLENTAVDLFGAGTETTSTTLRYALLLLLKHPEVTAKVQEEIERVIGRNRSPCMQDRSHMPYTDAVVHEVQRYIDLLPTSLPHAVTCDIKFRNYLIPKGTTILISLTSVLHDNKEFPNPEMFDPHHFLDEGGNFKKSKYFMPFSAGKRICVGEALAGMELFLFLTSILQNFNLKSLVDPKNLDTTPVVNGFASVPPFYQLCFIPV
Chain of Cytochrome P450 2D6 (P10635 whole entry): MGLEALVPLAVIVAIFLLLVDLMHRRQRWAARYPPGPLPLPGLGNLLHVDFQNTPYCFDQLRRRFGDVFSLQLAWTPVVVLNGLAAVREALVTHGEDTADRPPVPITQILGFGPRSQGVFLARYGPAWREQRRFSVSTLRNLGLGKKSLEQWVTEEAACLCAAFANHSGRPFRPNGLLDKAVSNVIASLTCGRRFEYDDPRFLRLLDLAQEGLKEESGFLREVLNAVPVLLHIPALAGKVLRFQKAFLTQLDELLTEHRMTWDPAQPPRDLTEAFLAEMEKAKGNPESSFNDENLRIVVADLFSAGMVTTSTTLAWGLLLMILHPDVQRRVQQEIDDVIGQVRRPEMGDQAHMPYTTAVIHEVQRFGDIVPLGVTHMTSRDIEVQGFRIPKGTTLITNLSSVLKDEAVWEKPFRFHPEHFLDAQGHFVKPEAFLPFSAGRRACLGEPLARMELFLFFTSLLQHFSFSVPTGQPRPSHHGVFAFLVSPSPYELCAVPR

## CCC(C)N1C(=O)C2C(C(=O)Nc3cccc(OC)c3)C3C=CC2(O3)C1C(=O)NC1CCCCC1C (stereo not given)
Cytochrome P450 2C9
  AC50: 12.6 µM (inconclusive)
Cytochrome P450 2D6
  AC50: 7.08 µM (inconclusive)
Cytochrome P450 2C19; read-out: AC50
  AC50: 28.2 µM (inconclusive)

## c1ccc(Nc2cccc(Nc3ccccc3)c2)cc1
[1]
  EC50: 0.937 µM (active)
[2]
  EC50: > 60 µM (not active)

## O=C(/C=C/c1cn(-c2ccccc2)nc1-c1cccc(Cl)c1)N1CCN(c2ccccn2)CC1
[1]
  EC50: 1.72 µM (active)
[2]
  EC50: > 60 µM (not active)

## CCCCCC(=O)Nc1cc(S(=O)(=O)N2CCOCC2)ccc1N1CCN(C)CC1
[1]
  EC50: 0.813 µM (active)
[2]
  EC50: > 60 µM (not active)

## Cc1nn(Cc2ccc(C(=O)Nc3ccc(C(=O)OC(C)C)cc3)o2)c(C)c1Cl
[1]
  EC50: 2.86 µM (active)
[2]
  EC50: > 60 µM (not active)

## COc1ccc(C(=O)c2ccc([N+](=O)[O-])cc2Cl)cc1
[1]
  EC50: 2.15 µM (active)
[2]
  EC50: > 30 µM (not active)

## Cc1cc2c(cc1C)NC1=C(O)[C@@H](c3c[nH]c4ccc(COc5ccccc5)cc34)OC1=N2
Cytochrome P450 2C9
  AC50: 7.94 µM (inconclusive)

## CCN1CCCC1CNC(=O)c1ccc(Sc2ccc(F)cc2)c([N+](=O)[O-])c1 (stereo not given)
[1]
  EC50: 0.879 µM (active)
[2]
  EC50: > 60 µM (inconclusive)

## O=C(N/N=C/c1ccc(Cl)cc1Cl)c1cccc(F)c1
Cytochrome P450 3A4
  AC50: 31.6 µM (inconclusive)
Cytochrome P450 2D6
  AC50: 8.91 µM (inconclusive)

## O=C(N[C@@]1(C(=O)O)C[C@@H]1c1ccccc1)c1ccccc1
Cytochrome P450 2C19
  AC50: inconclusive

## O=C1Nc2ccccc2C(O)(C(=O)NCc2ccc3c(c2)OCO3)N1c1ccc(Cl)c(Cl)c1 (stereo not given)
Cytochrome P450 2D6
  AC50: 1.12 µM (inconclusive)

## C#CCCCO/N=C1/C[C@@H](O)[C@@H](O)[C@@H]2[C@@H]3C(=O)N(C[C@@H]4CCCO4)C(=O)[C@H]3CC[C@H]12
Cytochrome P450 3A4
  AC50: 6.31 µM (inconclusive)

## CCCc1n[nH]c2c1C(c1ccc(OCCN3CCOCC3)c(OCC)c1)C(C#N)=C(N)O2 (stereo not given)
Protein RecA
  EC50: 10 µM (active)

## Clc1ccc(NC2=NCCCS2)cc1Cl
[1]
  EC50: 1.8 µM (active)
[2]
  EC50: > 60 µM (not active)

## CC(C(=O)N1CCc2ccccc21)N1CCN(Cc2ccccc2)CC1 (stereo not given)
[1]
  EC50: 0.793 µM (active)
[2]
  EC50: > 60 µM (not active)

## CCCC1(C(=O)OC)C=C2C(=C(c3ccccc3)C(=O)C2C)CN1 (stereo not given)
Cytochrome P450 3A4
  AC50: 10 µM (inconclusive)

## COC(=O)[C@@]1(Cc2ccccc2)[C@H]2c3cc(C(=O)N(C)C)n(Cc4ccc(O)c(OC)c4)c3C[C@H]2CN1C(=O)c1ccccc1
Cytochrome P450 2D6
  AC50: 31.6 µM (inconclusive)

## O=C(O)C(=O)Cc1ccc2c(c1)OCO2
Cytochrome P450 2C19
  AC50: inconclusive

## Cc1cccc(NC(=O)Nc2ccncc2)c1
[1]
  EC50: 0.781 µM (active)
[2]
  EC50: > 60 µM (not active)

## CCCOc1ccc(C(=O)NC(=S)Nc2nc3ccc(C)cc3s2)cc1
Cytochrome P450 2C19; read-out: AC50
  AC50: 15.8 µM (inconclusive)

## COCCn1c(=O)c(-c2ccccc2)nc2cnc(OC)nc21
Cytochrome P450 2C9
  AC50: 20 µM (inconclusive)
Cytochrome P450 3A4
  AC50: 25.1 µM (inconclusive)

## O=C(CSc1nc2ccccc2c2ccccc12)c1ccccc1
Cytochrome P450 3A4
  AC50: 3.98 µM (inconclusive)
Cytochrome P450 2C19; read-out: AC50
  AC50: 6.31 µM (inconclusive)

## O=[N+]([O-])c1ccc(C2=Nn3c(nnc3-c3ccc(Cl)cc3)SC2)o1
Cytochrome P450 2C9
  AC50: 7.94 µM (inconclusive)
Cytochrome P450 2D6
  AC50: 5.01 µM (inconclusive)

## Cc1ccccc1C(=O)N1CCc2ccccc2C1
Cytochrome P450 2C9
  AC50: 5.62 µM (inconclusive)
Cytochrome P450 3A4
  AC50: 6.31 µM (inconclusive)

## COc1ccc(C(=O)N2CCC3(CC2)CN(c2ccncc2)C3)cc1
Cytochrome P450 2C9
  AC50: 39.8 µM (inconclusive)
Cytochrome P450 3A4
  AC50: 15.8 µM (inconclusive)
Cytochrome P450 2D6
  AC50: 25.1 µM (inconclusive)

## COc1ncc2nc(C)c(=O)n(-c3ccccc3)c2n1
Cytochrome P450 3A4
  AC50: 25.1 µM (inconclusive)
Cytochrome P450 2C19; read-out: AC50
  AC50: 39.8 µM (inconclusive)

## O=c1c(-c2ccc(Cl)cc2)nc2cnc(N3CCNCC3)nc2n1-c1ccccc1
Cytochrome P450 2C9
  AC50: 15.8 µM (inconclusive)
Cytochrome P450 3A4
  AC50: 12.6 µM (inconclusive)

## CCCC/C=C/C(NC(=O)c1ccco1)c1ccccc1 (stereo not given)
Cytochrome P450 2D6
  AC50: 39.8 µM (inconclusive)

## O=C1C2CCC(C(O)C2)N1Cc1ccccc1 (stereo not given)
Cytochrome P450 3A4
  AC50: 17.8 µM (inconclusive)

## Cc1onc(-c2ccccc2Cl)c1C(=O)NCC(=O)O
Cytochrome P450 2C19; read-out: AC50
  AC50: 39.8 µM (inconclusive)

## O=C(CCN1CCCCC1)N1CCc2c([nH]c3ccccc23)[C@H]1c1cccnc1
Cytochrome P450 2D6
  AC50: 3.16 µM (inconclusive)
Cytochrome P450 2C19
  AC50: inconclusive

## Cc1ccc(-n2c(C)cc(C(=S)N3CCOCC3)c2C)cc1C
Cytochrome P450 3A4
  AC50: 31.6 µM (inconclusive)
Cytochrome P450 2D6
  AC50: 22.4 µM (inconclusive)

## O=C(O)/C=C\c1c[nH]cn1 [CIS-UROCANIC ACID]
Cytochrome P450 3A4
  AC50: 0.251 µM (inconclusive)

## O=c1c2ccccc2c(-c2ccc(Br)cc2)nn1Cc1ccccc1
Cytochrome P450 2C9
  AC50: 3.55 µM (inconclusive)
Cytochrome P450 3A4
  AC50: 25.1 µM (inconclusive)
Cytochrome P450 2C19; read-out: AC50
  AC50: 5.62 µM (inconclusive)

## Cn1c(=O)c(-c2cccc(F)c2)nc2cncnc21
Cytochrome P450 3A4
  AC50: 20 µM (inconclusive)

## N#C/C(=C(/O)CN1CCCCC1)c1nc(-c2ccc(Cl)cc2)cs1
Cytochrome P450 3A4
  AC50: 10 µM (inconclusive)
Cytochrome P450 2C19; read-out: AC50
  AC50: 10 µM (inconclusive)

## C=CCSc1ncccc1C(=O)NCc1ccc(C)cc1
Cytochrome P450 2C9
  AC50: 12.6 µM (inconclusive)

## Cc1c(CCC(C)C)c(-n2ccnc2C)n2c(nc3ccccc32)c1C#N
Cytochrome P450 2C9
  AC50: 3.98 µM (inconclusive)
Cytochrome P450 3A4
  AC50: 14.1 µM (inconclusive)

## COC(=O)c1scc(C)c1NC(=O)Cc1ccccc1
Cytochrome P450 3A4
  AC50: 22.4 µM (inconclusive)

## COc1ccc(N2CCN(C(CNC(=O)C(=O)NCCCn3ccnc3)c3cccnc3)CC2)cc1 (stereo not given)
[1]
  EC50: < 0.1 µM (active)
[2]
  EC50: 10.4 µM (active)

## CC#CCOC(=O)c1c(C)nc2sc3c(c2c1N)CC[C@@H](O)C3
Cytochrome P450 2C9
  AC50: 15.8 µM (inconclusive)
Cytochrome P450 2D6
  AC50: 31.6 µM (inconclusive)

## O=C(CN1CCCC1)N/N=C/c1ccc(-c2cccc(Cl)c2)o1
Cytochrome P450 2C9
  AC50: 15.8 µM (inconclusive)

## CN1CCN(c2ccccc2NC(=O)c2ccc(-c3ccc(Br)cc3)o2)CC1
[1]
  EC50: 2.18 µM (active)
[2]
  EC50: 4.08 µM (active)

## N#Cc1c(Cl)cccc1-n1ccnc1
Cytochrome P450 2C9
  AC50: 2.82 µM (inconclusive)
Cytochrome P450 2D6
  AC50: 7.08 µM (inconclusive)

## O=C1CCC[C@@H]2Cc3[nH]c4c(Cl)ccc(Cl)c4c3[C@@H]3CCN1[C@H]23
[1]
  EC50: 1.33 µM (active)
[2]
  EC50: > 60 µM (not active)

## COc1ccc(-c2cn3c([n+]2-c2ccccc2)SCC3)cc1
[1]
  EC50: 1.3 µM (active)
[2]
  EC50: > 60 µM (not active)

## CSc1ccccc1NC(=O)c1cc(-c2cccnc2)nc2ccc(Br)cc12
[1]
  EC50: 2 µM (active)
[2]
  EC50: > 60 µM (not active)

## COC(=O)[C@@H]1CC[C@H](C)[C@@H](c2ccc(C)cc2)N1C(=O)c1ccc(/C=N\O[C@@H](C)CN2CCCc3nc(C)c(C)cc32)cc1
Cytochrome P450 2C9
  AC50: 3.16 µM (inconclusive)
Cytochrome P450 3A4
  AC50: 3.98 µM (inconclusive)
Cytochrome P450 2D6
  AC50: 6.31 µM (inconclusive)

## Cc1nc(C(=O)Nc2ccc(Cl)cc2)sc1C1(C)CC(c2cccc([N+](=O)[O-])c2)=NO1 (stereo not given)
[1]
  EC50: 0.545 µM (active)
[2]
  EC50: > 60 µM (not active)

## CCc1cc2c(nc1CC)CCN(CC/C(C)=N/OCC[C@@H]1C=C[C@H](OC(C)=O)[C@H](COC(C)=O)O1)C2
Cytochrome P450 3A4
  AC50: 3.16 µM (inconclusive)

## Cn1c(=O)cnc2cnc(Oc3ccccc3)nc21
Cytochrome P450 2C19; read-out: AC50
  AC50: 39.8 µM (inconclusive)

## CCN1CCN(C(c2ccccn2)c2c(NC(=O)c3ccccc3)sc(C)c2C)CC1 (stereo not given)
Cytochrome P450 2C19; read-out: AC50
  AC50: 17.8 µM (inconclusive)

## Nc1n[nH]c2ccccc12
Cytochrome P450 3A4
  AC50: 3.98 µM (inconclusive)

## Cc1nc(-c2cccnc2)sc1C(N)=O
Cytochrome P450 3A4
  AC50: 28.2 µM (inconclusive)
Cytochrome P450 2C19; read-out: AC50
  AC50: 5.01 µM (inconclusive)

## COCCn1c(=O)cnc2cnc(Oc3cccc(Cl)c3)nc21
Cytochrome P450 3A4
  AC50: 31.6 µM (inconclusive)

## CN(C)c1ncnc2ccc(-c3ccccc3C#N)cc12
Cytochrome P450 3A4
  AC50: 1.58 µM (inconclusive)

## N#Cc1ccc(CN2CCCC3(CCNCC3)C2)cc1
Cytochrome P450 2D6
  AC50: 20 µM (inconclusive)

## COc1ccc(-c2nc3cnc(N4CCN(C)CC4)nc3n(Cc3cccs3)c2=O)cc1
Cytochrome P450 2C19
  AC50: inconclusive
